The results in this text go back to ChEMBL document CHEMBL1201862, “PubChem BioAssay data set” (2004).

Each structure is given as a SMILES string. Activity calls are given as the source filed them. Bounds are passed on as bounds.

Assay [1] is described as follows: NIH3T3 cell viability loss – ATP luminescence, mouse fibroblasts, counter-screen, dose response (AID 2010).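 Note: cells exposed to compound for about 90 hours before reading.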 It is filed as functional, cell-based. On the technique in general: The purpose of a counterscreen is to sort out artefacts and off-target activity.
Assay [2] in a line: Trypanosoma cruzi growth suppression in host cells – NIH3T3 host cells, beta-gal luminescence, confirmation (AID 2044).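 Note: intracellular parasites grown in NIH/3T3 mouse fibroblasts as host cells; luminescent beta-galactosidase reporter signal from transgenic T. cruzi replicating inside host cells; inhibitors lower the luminescence signal.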 It is filed as functional, cell-based.
Another assay addresses T1, Estrogen receptor (Homo sapiens, UniProt P03372).
T1 sequence (P03372 whole entry): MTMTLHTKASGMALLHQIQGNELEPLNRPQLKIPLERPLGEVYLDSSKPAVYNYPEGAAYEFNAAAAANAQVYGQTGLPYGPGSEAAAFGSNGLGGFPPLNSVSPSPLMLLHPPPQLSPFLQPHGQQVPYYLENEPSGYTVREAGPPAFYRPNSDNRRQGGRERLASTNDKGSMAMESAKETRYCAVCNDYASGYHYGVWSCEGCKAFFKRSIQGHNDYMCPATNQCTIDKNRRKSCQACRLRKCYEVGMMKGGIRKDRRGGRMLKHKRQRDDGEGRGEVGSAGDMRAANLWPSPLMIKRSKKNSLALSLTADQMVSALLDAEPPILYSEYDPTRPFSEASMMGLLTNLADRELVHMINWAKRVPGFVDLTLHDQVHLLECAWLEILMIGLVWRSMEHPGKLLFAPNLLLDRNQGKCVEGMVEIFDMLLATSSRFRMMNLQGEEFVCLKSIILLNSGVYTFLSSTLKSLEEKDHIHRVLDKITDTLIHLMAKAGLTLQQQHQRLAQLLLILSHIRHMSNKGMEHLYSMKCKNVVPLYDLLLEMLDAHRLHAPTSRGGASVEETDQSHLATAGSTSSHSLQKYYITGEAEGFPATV
The experiment in a line: ERα coactivator recruitment enhancers – biochemical, TR-FRET, ERα LBD, dose response (AID 737). A general note: Time-resolved FRET reads energy transfer from a long-lived donor to a nearby acceptor.

Assay [3] in a line: A549 cell cytotoxicity, dose response, cytotoxicity control, plate reader, cherry-pick, antagonist series (AID 743412). It is filed as functional, cell-based.
In assay [4] the target is Sphingosine 1-phosphate receptor 3 (Homo sapiens, UniProt Q99500). The experiment in a line: Dose response cell-based high throughput screening assay for antagonists of the Sphingosine 1-Phosphate Receptor 3 (S1P3). [Related pubchem assays: 1429, 485 ]. The class given is functional.
Assay [5] addresses 5-hydroxytryptamine receptor 1E (Homo sapiens, UniProt P28566). The experiment in a line: Counterscreen assay for S1P3 antagonists: Dose response cell-based high throughput screening assay to identify antagonists of the 5-Hydroxytryptamine Receptor Subtype 1E (5HT1E). [Related pubchem assays: 1429, 485 ]. It is filed as functional.
The nature of assay [6]: blockade of melanocortin 4 receptor signaling – cell-based, plate reader, cherry pick, counter-screen for LGR2 antagonist project, dose response (AID 743444).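 Note: transfected HEK 293 cells stimulated with alpha-MSH peptide; potency of inhibitors of the alpha-MSH evoked signal.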 The class given is functional.
The subject of assay [7] is Streptococcus sp. 'group A'. The experiment in a line: Streptococcus pyogenes SK(-)GAS viability under kanamycin – luminescence, BacTiterGlo, confirmation, counter-screen for streptokinase expression inhibitor project, dose response (AID 1900). The class given is functional, organism-based.
For the next assay, the system named is Streptococcus. The experiment in a line: GAS UMAA2166 growth inhibition – luminescence, BacTiterGlo, counter-screen for streptokinase expression inhibitor project, dose response (AID 1915).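 Note: potency for reduction of bacterial viability or growth.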 It is filed as functional, organism-based.
Assay [8] can be described thus: viability loss in HEK293 cells – cell-based, plate reader, cherry-picked samples, cytotoxicity control, dose response (AID 743446). It is filed as functional.
Assay [9] can be described thus: toxicity toward HepG2 liver cells – cell-based, plate reader, cherry-pick, antagonist series, cytotoxicity control, dose response (AID 743416). It is filed as functional.
Assay [10] is described as follows: blockers of bursicon-stimulated LGR2 cAMP reporter – cell-based, HEK293, CRE-luciferase reporter, cherry pick, set 2, dose response (AID 743343).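 Note: transfected cells were stimulated with diluted bursicon conditioned medium after compound addition.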 The class given is functional. A general note: Reporter assays use an easily measured gene product as a stand-in for the process of interest.
A further assay concerns the target T2, Streptokinase A (Streptococcus pyogenes serotype M1, UniProt P10520).
T2 sequence (P10520 whole entry): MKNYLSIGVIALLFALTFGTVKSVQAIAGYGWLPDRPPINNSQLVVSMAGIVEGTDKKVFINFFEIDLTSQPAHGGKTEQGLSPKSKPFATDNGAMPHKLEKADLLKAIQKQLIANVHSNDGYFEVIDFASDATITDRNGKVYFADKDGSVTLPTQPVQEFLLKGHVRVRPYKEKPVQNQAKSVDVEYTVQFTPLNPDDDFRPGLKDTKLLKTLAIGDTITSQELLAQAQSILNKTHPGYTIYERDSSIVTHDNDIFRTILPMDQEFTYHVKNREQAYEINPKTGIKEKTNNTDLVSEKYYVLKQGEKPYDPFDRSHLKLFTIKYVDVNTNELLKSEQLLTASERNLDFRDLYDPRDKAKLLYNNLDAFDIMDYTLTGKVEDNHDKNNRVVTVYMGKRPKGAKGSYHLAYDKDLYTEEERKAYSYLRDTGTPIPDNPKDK
Kind of assay: viability-normalized secreted streptokinase activity reduction – plasminogen activation absorbance, OD405, dose response (AID 1914).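 Note: secreted streptokinase activity via plasminogen activation per viability signal from cell pellet.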 It is filed as functional, Streptococcus pyogenes M1 GAS.

The target in a further assay is NADPH oxidase 1 (Homo sapiens, UniProt Q9Y5S8). The experiment in a line: Luminescence-based cell-based dose response assay to identify inhibitors of NADPH oxidase 1 (NOX1). The class given is functional.
Assay [11] in a line: HIV-1 Vif–A3G interaction blockers – biochemical, TR-FRET, GST-Vif 1-94, biotin-A3G peptide, dose response retest, primary screen (AID 1117319).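 Note: TR-FRET signal of purified GST-Vif binding a biotinylated A3G peptide; inhibitors lower the FRET signal by blocking Vif and A3G binding.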 It is filed as functional.

Chain of Sphingosine 1-phosphate receptor 3 (Q99500 whole entry): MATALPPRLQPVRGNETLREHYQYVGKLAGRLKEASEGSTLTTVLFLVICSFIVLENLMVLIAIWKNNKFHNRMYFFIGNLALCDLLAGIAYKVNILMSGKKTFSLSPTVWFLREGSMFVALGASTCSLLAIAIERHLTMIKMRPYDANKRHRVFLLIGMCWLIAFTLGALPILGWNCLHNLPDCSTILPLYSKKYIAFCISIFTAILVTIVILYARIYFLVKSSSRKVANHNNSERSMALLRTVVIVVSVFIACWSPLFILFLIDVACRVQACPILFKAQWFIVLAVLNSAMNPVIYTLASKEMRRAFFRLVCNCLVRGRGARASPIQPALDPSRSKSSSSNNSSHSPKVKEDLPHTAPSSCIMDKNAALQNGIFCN
Chain of NADPH oxidase 1 (Q9Y5S8 whole entry): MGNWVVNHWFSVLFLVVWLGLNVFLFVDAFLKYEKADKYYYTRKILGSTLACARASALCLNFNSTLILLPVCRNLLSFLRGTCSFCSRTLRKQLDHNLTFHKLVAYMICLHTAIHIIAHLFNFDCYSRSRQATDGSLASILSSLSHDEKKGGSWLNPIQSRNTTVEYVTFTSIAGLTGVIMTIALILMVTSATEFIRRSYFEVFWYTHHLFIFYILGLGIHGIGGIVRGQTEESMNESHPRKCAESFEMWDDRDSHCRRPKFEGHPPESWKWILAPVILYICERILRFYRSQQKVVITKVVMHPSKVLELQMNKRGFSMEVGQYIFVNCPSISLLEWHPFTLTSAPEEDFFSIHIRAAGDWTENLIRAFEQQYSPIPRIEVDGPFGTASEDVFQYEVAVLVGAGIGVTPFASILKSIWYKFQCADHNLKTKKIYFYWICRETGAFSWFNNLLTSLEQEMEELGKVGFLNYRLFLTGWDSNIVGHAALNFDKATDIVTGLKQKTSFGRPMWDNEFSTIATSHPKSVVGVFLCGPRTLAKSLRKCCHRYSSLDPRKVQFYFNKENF
Chain of 5-hydroxytryptamine receptor 1E (P28566 whole entry): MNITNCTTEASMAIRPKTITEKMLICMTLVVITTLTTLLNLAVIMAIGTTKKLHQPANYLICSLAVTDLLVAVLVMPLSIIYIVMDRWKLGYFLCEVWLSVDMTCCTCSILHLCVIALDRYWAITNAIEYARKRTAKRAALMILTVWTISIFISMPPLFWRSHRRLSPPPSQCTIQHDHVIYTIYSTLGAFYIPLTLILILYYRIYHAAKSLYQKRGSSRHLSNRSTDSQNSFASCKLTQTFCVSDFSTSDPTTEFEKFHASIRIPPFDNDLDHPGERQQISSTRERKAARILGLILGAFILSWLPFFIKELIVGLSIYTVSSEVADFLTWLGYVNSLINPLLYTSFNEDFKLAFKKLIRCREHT

Regarding `CC(C)Cc1ccc(CN2CCCC(NC(=O)CSc3nncn3C)C2)cc1` (stereo unspecified), the EC50 (usually the midpoint of the concentration-response curve) in assay [1] was > 60 µM (not active); in [2] it was < 100 nM (active); in “cells” it was 71 nM (active).

With `Cc1ccc(F)cc1NC(=O)c1cccc2nccnc12`, the EC50 at Estrogen receptor was 13 µM (not active).

For `Cc1cccc(Cn2nc(C(C)(C)C)cc2C(=O)Nc2ccc(F)cc2)c1`, the AC50 (usually the midpoint of the concentration-response curve, whichever way the signal moves) was 26.5 µM (active) in assay [3]; 26.4 µM (active) in assay [6]; 8.76 µM (active) in assay [8]; > 52 µM (inactive) in assay [9]; 14.6 µM (active) in assay [10]. The IC50 (commonly the concentration needed to halve the response being measured) in [4] was 5.22 µM (active); in assay [5], 3.86 µM (active). The results for the EC50 (in assay [7]; with Streptococcus; on Streptokinase A) were 7.66 µM (active), 16.3 µM (active) and 1.9 µM (active), respectively.

In the case of `CN(C)c1ccc(NC(=O)Nc2cccc(Cl)c2)cc1`, the IC50 was 48 nM (active) at NADPH oxidase 1 and > 51.6 µM (active) in assay [11].
